According to patent publication US20260193264A1, “BENZOYPARAZINE PYRAZINES AND THEIR USES” (FOGHORN THERAPEUTICS INC., priority 2022, published 2026):

Key:
[1] = biological target: T1, HiBit-BRG1 fusion protein in stable HeLa cell line expressing HiBit-BRG1 and LgBit (Homo sapiens, UniProt P51532); test: HiBiT-BRG1 cell-based degradation assay (Nano-Glo HiBiT, 24 h); details: HeLa HiBit-BRG1/LgBit cells; for DC50: read-out: BRMG1 HiBit Degradation IC50; for Dmax: top dose 30 μM, read-out: BRG1 HiBit Degradation Maximum (%)
T1 construct: expressed in transfected cells
How it was run: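 Degradation calculated from NanoBiT luminescence relative to DMSO-treated cells (high) and cells given 2 μM known BRM/BRG1 degrader (low). HeLa cells stably expressing HiBiT-BRG1 plus LgBiT were exposed to compound for 24 h before lytic HiBiT detection.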

[2] = biological target: T2, HiBiT-BRM fusion protein in stable HeLa cell line (Homo sapiens, UniProt P51531); test: HiBiT-BRM cell-based degradation assay (Nano-Glo HiBiT Lytic Detection, 24 h); parameters: DC50: scale not given here; details: HeLa HiBiT-BRM cells; for DC50: read-out: BRM HiBit Degradation IC50; for BRM HiBit Degradation Maximum (%): top dose 30 μM
T2 construct: expressed in transfected cells
How it was run: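 HeLa stably expressing HiBiT-BRM; 24 h compound exposure, 10-pt 3-fold dilution from 30 μM final, duplicates. Lytic LgBiT complementation, luminescence. % degradation vs DMSO (HC) and 2 μM known BRM/BRG1 degrader (LC).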

T2 sequence (P51531 whole entry, the tested form may be a part): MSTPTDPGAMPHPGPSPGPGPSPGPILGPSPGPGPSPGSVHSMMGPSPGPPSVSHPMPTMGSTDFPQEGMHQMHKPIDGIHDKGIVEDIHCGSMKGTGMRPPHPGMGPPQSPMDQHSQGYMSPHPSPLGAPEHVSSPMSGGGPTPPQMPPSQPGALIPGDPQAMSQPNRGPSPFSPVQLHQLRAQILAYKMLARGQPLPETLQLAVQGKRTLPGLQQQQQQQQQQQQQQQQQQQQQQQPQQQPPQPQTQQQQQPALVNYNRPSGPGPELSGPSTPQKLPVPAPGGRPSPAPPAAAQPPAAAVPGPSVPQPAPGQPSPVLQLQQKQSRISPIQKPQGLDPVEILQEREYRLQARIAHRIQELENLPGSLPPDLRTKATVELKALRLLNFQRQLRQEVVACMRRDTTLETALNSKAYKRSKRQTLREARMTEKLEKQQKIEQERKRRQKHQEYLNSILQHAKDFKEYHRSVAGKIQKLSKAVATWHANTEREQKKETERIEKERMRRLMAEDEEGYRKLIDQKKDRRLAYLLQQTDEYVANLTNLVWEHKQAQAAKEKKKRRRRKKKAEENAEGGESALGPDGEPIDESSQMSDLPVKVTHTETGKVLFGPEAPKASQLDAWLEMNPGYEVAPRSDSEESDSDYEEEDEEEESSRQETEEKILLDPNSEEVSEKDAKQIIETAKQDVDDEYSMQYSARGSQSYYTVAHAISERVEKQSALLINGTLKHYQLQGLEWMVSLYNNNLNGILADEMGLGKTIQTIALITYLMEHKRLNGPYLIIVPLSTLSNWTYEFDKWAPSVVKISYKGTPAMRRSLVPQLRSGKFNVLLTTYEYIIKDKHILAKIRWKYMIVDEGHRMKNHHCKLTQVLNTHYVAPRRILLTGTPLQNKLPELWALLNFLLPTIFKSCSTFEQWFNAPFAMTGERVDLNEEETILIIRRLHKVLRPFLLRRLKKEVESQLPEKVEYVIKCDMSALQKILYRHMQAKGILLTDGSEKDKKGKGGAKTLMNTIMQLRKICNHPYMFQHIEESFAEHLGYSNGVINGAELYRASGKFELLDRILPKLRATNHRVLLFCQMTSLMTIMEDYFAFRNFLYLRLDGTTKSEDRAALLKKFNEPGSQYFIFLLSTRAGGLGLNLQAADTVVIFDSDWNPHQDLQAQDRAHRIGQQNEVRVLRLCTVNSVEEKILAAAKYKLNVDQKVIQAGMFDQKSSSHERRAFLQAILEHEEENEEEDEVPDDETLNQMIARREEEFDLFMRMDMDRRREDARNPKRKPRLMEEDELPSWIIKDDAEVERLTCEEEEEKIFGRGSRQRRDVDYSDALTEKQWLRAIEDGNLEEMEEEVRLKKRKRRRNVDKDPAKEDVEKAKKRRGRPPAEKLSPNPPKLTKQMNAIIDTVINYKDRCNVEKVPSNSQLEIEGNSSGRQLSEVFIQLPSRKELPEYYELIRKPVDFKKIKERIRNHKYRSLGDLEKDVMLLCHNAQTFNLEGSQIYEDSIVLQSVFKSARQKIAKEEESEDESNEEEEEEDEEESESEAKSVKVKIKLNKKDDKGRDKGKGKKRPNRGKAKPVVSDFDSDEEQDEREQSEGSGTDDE
T1 sequence (P51532 whole entry, the tested form may be a part): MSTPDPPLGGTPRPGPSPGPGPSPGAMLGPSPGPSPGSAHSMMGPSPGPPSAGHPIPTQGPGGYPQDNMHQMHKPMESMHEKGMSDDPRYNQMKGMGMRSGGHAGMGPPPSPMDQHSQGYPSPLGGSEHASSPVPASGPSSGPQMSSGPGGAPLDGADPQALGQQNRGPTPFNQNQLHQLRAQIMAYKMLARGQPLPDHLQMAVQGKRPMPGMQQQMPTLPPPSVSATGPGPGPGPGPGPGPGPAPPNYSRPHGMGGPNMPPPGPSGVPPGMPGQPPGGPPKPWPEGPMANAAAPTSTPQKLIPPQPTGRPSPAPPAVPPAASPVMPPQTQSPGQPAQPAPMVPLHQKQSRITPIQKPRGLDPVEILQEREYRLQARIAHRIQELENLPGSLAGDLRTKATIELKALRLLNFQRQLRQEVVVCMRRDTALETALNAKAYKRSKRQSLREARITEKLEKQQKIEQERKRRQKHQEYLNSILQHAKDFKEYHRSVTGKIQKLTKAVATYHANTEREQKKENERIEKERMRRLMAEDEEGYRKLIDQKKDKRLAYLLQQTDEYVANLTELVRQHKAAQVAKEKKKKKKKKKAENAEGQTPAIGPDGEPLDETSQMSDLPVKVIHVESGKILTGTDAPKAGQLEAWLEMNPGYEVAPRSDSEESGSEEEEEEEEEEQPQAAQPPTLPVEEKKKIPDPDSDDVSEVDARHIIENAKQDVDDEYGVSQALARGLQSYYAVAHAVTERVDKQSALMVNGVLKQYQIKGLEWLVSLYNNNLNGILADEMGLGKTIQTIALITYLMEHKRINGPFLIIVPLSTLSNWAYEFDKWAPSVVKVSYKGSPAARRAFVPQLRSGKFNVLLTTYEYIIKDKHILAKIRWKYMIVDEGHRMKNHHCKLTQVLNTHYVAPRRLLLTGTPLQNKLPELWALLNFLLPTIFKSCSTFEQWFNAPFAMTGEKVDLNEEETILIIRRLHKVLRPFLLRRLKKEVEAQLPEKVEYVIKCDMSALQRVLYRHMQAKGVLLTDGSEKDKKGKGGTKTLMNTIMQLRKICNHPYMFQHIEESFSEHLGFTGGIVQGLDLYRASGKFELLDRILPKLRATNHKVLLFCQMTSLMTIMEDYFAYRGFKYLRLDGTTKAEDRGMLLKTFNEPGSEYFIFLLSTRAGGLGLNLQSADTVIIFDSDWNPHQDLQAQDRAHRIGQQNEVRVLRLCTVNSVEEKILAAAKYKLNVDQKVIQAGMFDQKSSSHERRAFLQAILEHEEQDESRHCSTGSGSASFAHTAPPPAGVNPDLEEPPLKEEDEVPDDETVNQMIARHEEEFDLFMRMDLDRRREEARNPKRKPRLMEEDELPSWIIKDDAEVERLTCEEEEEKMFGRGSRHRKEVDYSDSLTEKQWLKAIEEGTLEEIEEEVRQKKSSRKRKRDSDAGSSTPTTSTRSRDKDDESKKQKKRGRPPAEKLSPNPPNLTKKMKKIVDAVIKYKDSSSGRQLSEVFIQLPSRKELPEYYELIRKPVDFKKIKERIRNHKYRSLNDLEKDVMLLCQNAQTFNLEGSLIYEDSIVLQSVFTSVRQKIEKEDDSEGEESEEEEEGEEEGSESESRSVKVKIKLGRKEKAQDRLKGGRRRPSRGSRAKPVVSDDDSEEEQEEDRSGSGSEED

| SMILES | DC50 [1] [nM] | Dmax [1] [%] | DC50 [2] [nM] | BRM HiBit Degradation Maximum (%) [2] |
| --- | --- | --- | --- | --- |
| Cc1ncsc1-c1ccc([C@H](C)NC(=O)[C@@H]2C[C@@H](O)CN2C(=O)[C@@H](c2cc(N3CCN(c4ccc5cc(-c6ccccc6O)nnc5c4)CC3)no2)C(C)C)cc1 [Compound 54, (2S,4R)-4-hydroxy-1-((R)-2-(3-(4-(3-(2-hydroxyphenyl)cinnolin-7-yl)piperazin-1-yl)isoxazol-5-yl)-3-methylbutanoyl)-N-((S)-1-(4-(4-methylthiazol-5-yl)phenyl)ethyl)pyrrolidine-2-carboxamide] |  | < 50 | > 10 | B (“B” indicates maximum degradation ≥50%) |
| Cc1ncsc1-c1ccc([C@H](C)NC(=O)[C@@H]2C[C@@H](O)CN2C(=O)[C@@H](c2cc(N3CC[C@H](c4ccc5nnc(-c6ccccc6O)cc5c4)C3)no2)C(C)C)cc1 [Compound 55, (2S,4R)-4-hydroxy-1-((R)-2-(3-((R)-3-(3-(2-hydroxyphenyl)cinnolin-6-yl)pyrrolidin-1-yl)isoxazol-5-yl)-3-methylbutanoyl)-N-((S)-1-(4-(4-methylthiazol-5-yl)phenyl)ethyl)pyrrolidine-2-carboxamide] |  | < 50 | > 10 | B (“B” indicates maximum degradation ≥50%) |
| Cc1ncsc1-c1ccc([C@H](C)NC(=O)[C@@H]2C[C@@H](O)CN2C(=O)[C@@H](c2cc(N3CCN(c4ccc5nnc(-c6ccccc6O)cc5c4)CC3)no2)C(C)C)cc1 [Compound 57, (2S,4R)-4-hydroxy-1-((R)-2-(3-(4-(3-(2-hydroxyphenyl)cinnolin-6-yl)piperazin-1-yl)isoxazol-5-yl)-3-methylbutanoyl)-N-((S)-1-(4-(4-methylthiazol-5-yl)phenyl)ethyl)pyrrolidine-2-carboxamide] | > 10 | > 75 | < 10 | A (“A” indicates maximum degradation ≥75%) |

Now from value to molecule, other results behind:

| DC50 [1] [nM] | Dmax [1] [%] | DC50 [2] [nM] | SMILES | BRM HiBit Degradation Maximum (%) [2] |
| --- | --- | --- | --- | --- |
| > 10 | > 75 | < 10 | Cc1ncsc1-c1ccc([C@H](C)NC(=O)[C@@H]2C[C@@H](O)CN2C(=O)[C@@H](c2cc(-c3ccnc(N4CCC(c5ccc6cc(-c7ccccc7O)nnc6c5)CC4)n3)no2)C(C)C)cc1 [Compound 52, (2S,4R)-4-hydroxy-1-((R)-2-(3-(2-(4-(3-(2-hydroxyphenyl)cinnolin-7-yl)piperidin-1-yl)pyrimidin-4-yl)isoxazol-5-yl)-3-methylbutanoyl)-N-((S)-1-(4-(4-methylthiazol-5-yl)phenyl)ethyl)pyrrolidine-2-carboxamide] | A (“A” indicates maximum degradation ≥75%) |
| > 10 | > 50 | < 10 | Cc1ncsc1-c1ccc([C@H](C)NC(=O)[C@@H]2C[C@@H](O)CN2C(=O)[C@@H](c2cc(N3CCC4(CC3)CN(c3ccc5cc(-c6ccccc6O)nnc5c3)C4)no2)C(C)C)cc1 [Compound 53, (2S,4R)-4-hydroxy-1-((R)-2-(3-(2-(3-(2-hydroxyphenyl)cinnolin-7-yl)-2,7-diazaspiro[3.5]nonan-7-yl)isoxazol-5-yl)-3-methylbutanoyl)-N-((S)-1-(4-(4-methylthiazol-5-yl)phenyl)ethyl)pyrrolidine-2-carboxamide] | A (“A” indicates maximum degradation ≥75%) |
| < 10 | > 75 | < 10 | Cc1ncsc1-c1ccc([C@H](C)NC(=O)[C@@H]2C[C@@H](O)CN2C(=O)[C@@H](c2cc(-c3cnc(N4CCC5(CC4)CC(c4ccc6nnc(-c7ccccc7O)cc6c4)C5)nc3)no2)C(C)C)cc1 [Compound 56, (2S,4R)-4-hydroxy-1-((R)-2-(3-(2-(2-(3-(2-hydroxyphenyl)cinnolin-6-yl)-7-azaspiro[3.5]nonan-7-yl)pyrimidin-5-yl)isoxazol-5-yl)-3-methylbutanoyl)-N-((S)-1-(4-(4-methylthiazol-5-yl)phenyl)ethyl)pyrrolidine-2-carboxamide] | A (“A” indicates maximum degradation ≥75%) |
